Experimental data taken from ChEMBL document CHEMBL4610090, “Oleanolic Acid Ameliorates Benign Prostatic Hyperplasia by Regulating PCNA-Dependent Cell Cycle Progression In Vivo and In Vitro” (J Nat Prod, 2020).
Values belong to the molecule of their own block, whether it stands above or below them. Active and inactive are the calls of the source. The calls are words filed in the database; no cut-off is given here.

What was measured:
Rattus norvegicus [1] = assay: Suppression of 5-alpha reductase2 mRNA expression in Sprague-Dawley rat model of testosterone propionate-induced benign prostatic hyperplasia at 10 mg/kg, po by qRT-PCR method; assay type: functional, organism-based
Rattus norvegicus [2] = assay: Downregulation of prostate Bcl-xL expression in Sprague-Dawley rat model of testosterone propionate-induced benign prostatic hyperplasia at 10 mg/kg, po by Western blot analysis; assay type: functional, organism-based
Rattus norvegicus [3] = assay: Induction of PARP1 cleavage in prostate tissue of Sprague-Dawley rat model of testosterone propionate-induced benign prostatic hyperplasia at 10 mg/kg, po by Western blot analysis; assay type: functional, organism-based
Rattus norvegicus [4] = assay: Suppression of prostate tissue weight in Sprague-Dawley rat model of testosterone propionate-induced benign prostatic hyperplasia at 10 mg/kg, po relative to control; assay type: functional
Rattus norvegicus [5] = assay: Suppression of serum DHT level in Sprague-Dawley rat model of testosterone propionate-induced benign prostatic hyperplasia at 10 mg/kg, po by ELISA; assay type: functional, organism-based
Rattus norvegicus [6] = assay: Downregulation of prostate Bcl2 expression in Sprague-Dawley rat model of testosterone propionate-induced benign prostatic hyperplasia at 10 mg/kg, po by Western blot analysis; assay type: functional, organism-based
Rattus norvegicus [7] = assay: Suppression of prostate tissue weight in Sprague-Dawley rat model of testosterone propionate-induced benign prostatic hyperplasia at 1 mg/kg, ip relative to control; assay type: functional
Rattus norvegicus [8] = assay: Downregulation of PCNA mRNA expression in prostate tissue of Sprague-Dawley rat model of testosterone propionate-induced benign prostatic hyperplasia at 10 mg/kg, ip by qRT-PCR method; assay type: functional
Rattus norvegicus [9] = assay: Suppression of serum DHT level in Sprague-Dawley rat model of testosterone propionate-induced benign prostatic hyperplasia at 1 to 10 mg/kg, ip by ELISA; assay type: functional, organism-based
Rattus norvegicus [10] = assay: Downregulation of Cdk4 expression in prostate tissue of Sprague-Dawley rat model of testosterone propionate-induced benign prostatic hyperplasia at 1 to 10 mg/kg, ip by Western blot analysis; assay type: functional, organism-based
Rattus norvegicus [11] = assay: Downregulation of PCNA expression in prostate tissue of Sprague-Dawley rat model of testosterone propionate-induced benign prostatic hyperplasia at 1 to 10 mg/kg, ip by Western blot analysis; assay type: functional, organism-based
Rattus norvegicus [12] = assay: Downregulation of prostate Bcl-xL expression in Sprague-Dawley rat model of testosterone propionate-induced benign prostatic hyperplasia at 1 to 10 mg/kg, ip by Western blot analysis; assay type: functional, organism-based
[13] = biological target: Proliferating cell nuclear antigen (Homo sapiens) (UniProt P12004); assay: Inhibition of PCNA-mediated cell cycle progression in human BPH-1 cells assessed as reduction in cdk4 level at 125 to 500 uM after 24 hrs by immunoblot analysis; assay type: cell-based
Rattus norvegicus [14] = assay: Downregulation of Cyclin D1 expression in prostate tissue of Sprague-Dawley rat model of testosterone propionate-induced benign prostatic hyperplasia at 1 to 10 mg/kg, ip by Western blot analysis; assay type: functional, organism-based
Rattus norvegicus [15] = assay: Suppression of 5-alpha reductase2 mRNA expression in Sprague-Dawley rat model of testosterone propionate-induced benign prostatic hyperplasia at 1 to 10 mg/kg, ip by qRT-PCR method; assay type: functional, organism-based
BPH-1 [16] = assay: Cytotoxicity against human BPH1 cells at 62.5 to 1000 uM by MTT assay; assay type: functional, cell-based
Rattus norvegicus [17] = assay: Suppression of prostate tissue weight in Sprague-Dawley rat model of testosterone propionate-induced benign prostatic hyperplasia at 10 mg/kg, ip relative to control; assay type: functional
Rattus norvegicus [18] = assay: Downregulation of Cdk2 expression in prostate tissue of Sprague-Dawley rat model of testosterone propionate-induced benign prostatic hyperplasia at 1 to 10 mg/kg, ip by Western blot analysis; assay type: functional, organism-based
Rattus norvegicus [19] = assay: Downregulation of prostate Bcl2 expression in Sprague-Dawley rat model of testosterone propionate-induced benign prostatic hyperplasia at 1 to 10 mg/kg, ip by Western blot analysis; assay type: functional, organism-based
[20] = biological target: Proliferating cell nuclear antigen (Homo sapiens) (UniProt P12004); assay: Inhibition of PCNA-mediated cell cycle progression in human BPH-1 cells assessed as reduction in cyclin D level at 250 to 500 uM after 24 hrs by immunoblot analysis; assay type: cell-based
BPH-1 [21] = assay: Downregulation of PCNA expression in human BPH1 cells at 125 to 500 uM after 24 hrs by immunoblot analysis; assay type: functional, cell-based
[22] = Toxicity in Sprague-Dawley rat model of testosterone propionate-induced benign prostatic hyperplasia assessed as effect on body weight at 1 to 10 mg/kg, ip; assay type: organism-based; conditions: in vivo
Rattus norvegicus [23] = assay: Downregulation of Cyclin E expression in prostate tissue of Sprague-Dawley rat model of testosterone propionate-induced benign prostatic hyperplasia at 1 to 10 mg/kg, ip by Western blot analysis; assay type: functional, organism-based
Rattus norvegicus [24] = assay: Suppression of prostate epithelial thickness in Sprague-Dawley rat model of testosterone propionate-induced benign prostatic hyperplasia at 1 mg/kg, ip by hematoxylin and eosin staining-based microscopic analysis relative to control; assay type: functional
Rattus norvegicus [25] = assay: Induction of PARP1 cleavage in prostate tissue of Sprague-Dawley rat model of testosterone propionate-induced benign prostatic hyperplasia at 10 mg/kg, ip by Western blot analysis; assay type: functional, organism-based
[26] = Toxicity in Sprague-Dawley rat model of testosterone propionate-induced benign prostatic hyperplasia assessed as behavioural changes at 1 to 10 mg/kg, ip; assay type: organism-based; conditions: in vivo
Rattus norvegicus [27] = assay: Downregulation of PCNA mRNA expression in prostate tissue of Sprague-Dawley rat model of testosterone propionate-induced benign prostatic hyperplasia at 1 mg/kg, ip by qRT-PCR method; assay type: functional
[28] = Toxicity in Sprague-Dawley rat model of testosterone propionate-induced benign prostatic hyperplasia assessed as effect on animal health at 1 to 10 mg/kg, ip; assay type: organism-based; conditions: in vivo
Rattus norvegicus [29] = assay: Suppression of prostate epithelial thickness in Sprague-Dawley rat model of testosterone propionate-induced benign prostatic hyperplasia at 10 mg/kg, ip by hematoxylin and eosin staining-based microscopic analysis relative to control; assay type: functional
Rattus norvegicus [30] = assay: Downregulation of PCNA […] expression in prostate tissue of Sprague-Dawley rat model of testosterone propionate-induced benign prostatic hyperplasia at 1 to 10 mg/kg, ip by immunohistochemical analysis; assay type: functional, organism-based

Sequence of Proliferating cell nuclear antigen (Homo sapiens) (P12004 whole entry): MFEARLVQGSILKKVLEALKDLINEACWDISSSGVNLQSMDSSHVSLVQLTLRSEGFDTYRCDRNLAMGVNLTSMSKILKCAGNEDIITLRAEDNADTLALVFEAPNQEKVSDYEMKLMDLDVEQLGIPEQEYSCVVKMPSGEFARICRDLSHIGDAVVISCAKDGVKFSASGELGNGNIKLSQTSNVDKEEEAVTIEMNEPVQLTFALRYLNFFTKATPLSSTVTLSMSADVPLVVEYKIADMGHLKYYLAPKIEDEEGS

Compound: CC(C)(C)NC(=O)[C@H]1CC[C@H]2[C@@H]3CC[C@H]4NC(=O)C=C[C@]4(C)[C@H]3CC[C@]12C [FINASTERIDE]
inhibition (Rattus norvegicus [1]): Active
Activity (Rattus norvegicus [2]): Active
Activity (Rattus norvegicus [3]): Active
inhibition in vivo at 10 mg/kg (Rattus norvegicus [4]): 32.5%
Activity (Rattus norvegicus [5]): Active
Activity (Rattus norvegicus [6]): Active

inhibition [13]: Active
inhibition [20]: Active
Compound: CC1(C)CC[C@]2(C(=O)O)CC[C@]3(C)C(=CC[C@@H]4[C@@]5(C)CC[C@H](O)C(C)(C)[C@@H]5CC[C@]43C)[C@@H]2C1 [OLEANOLIC_ACID]
inhibition in vivo at 1 mg/kg (Rattus norvegicus [7]): 30.9%
Activity (Rattus norvegicus [8]): 71.16%
inhibition (Rattus norvegicus [9]): Active
Activity (Rattus norvegicus [10]): Active
Activity (Rattus norvegicus [11]): Active
Activity (Rattus norvegicus [12]): Active
Activity (Rattus norvegicus [14]): Active
inhibition (Rattus norvegicus [15]): Active
Activity (BPH-1 [16]): Active
inhibition in vivo at 10 mg/kg (Rattus norvegicus [17]): 31.2%
Activity (Rattus norvegicus [18]): Active
Activity (Rattus norvegicus [19]): Active
Activity (BPH-1 [21]): Active
Activity [22]: Non-Toxic
Activity (Rattus norvegicus [23]): Active
inhibition in vivo at 1 mg/kg (Rattus norvegicus [24]): 48%
Activity (Rattus norvegicus [25]): Active
Activity [26]: Non-Toxic
Activity (Rattus norvegicus [27]): 54.89%
Activity [28]: Non-Toxic
inhibition in vivo at 10 mg/kg (Rattus norvegicus [29]): 54.8%
Activity (Rattus norvegicus [30]): Active
